From patent US20250360212A1, “COMPOSITIONS AND USES OF PSCA TARGETED CHIMERIC ANTIGEN RECEPTOR MODIFIED CELLS EXPRESSING IL-15” (City of Hope, priority 2023, published 2025) come the findings set out here.

Each structure is given as a SMILES string.

In one assay the test system is MIA Paca-2 GR. As to the kind of experiment: Effect of gemcitabine on gemcitabine-resistant cell lines (RTCA). It counts as cell-based, human. Particulars: 1.6 uM and 3.2 uM; without medium change or with medium change at 1 h or 3 h; compared to parental cell line. The text has this:
(§1) Gemcitabine-based therapy is currently the standard first-line therapy for patients with advanced PDAC. However, tumor recurrence after gemcitabine treatment may lead to short patient survival (Jia Y, Gu D, Wan J, et al. The role of GLI-SOX2 signaling axis for gemcitabine resistance in pancreatic cancer. Oncogene 2019; 38 (10): 1764-77. doi: 10.1038/s41388-018-0553-0 [published Online First: 2018 Oct. 31]). Therefore, it is critical to verify whether […] cells are effective in killing gemcitabine-resistant tumors in vitro and in vivo. In this case, we established two gemcitabine-resistant (GR) cell lines (Capan-1 GR and MIA Paca-2 GR) by exposing parental Capan-1 and MIA Paca-2 cells to increasing concentrations of gemcitabine for 9 months. […] Compared to the parental cell lines, Capan-1 GR and MIA Paca-2 GR were not killed by gemcitabine at concentrations of 1.6 uM and 3.2 uM, either without medium change or with medium change at 1 h or 3 h (FIG. 6B, FIGS. 10 and 11). We explored the anti-PC effect of […] cells targeting Capan-1 GR and MIA Paca-2 GR cells in vitro. […] We also measured the levels of CD25, CD69, CD107a, TNF-α, and IFN-γ expression of […] cells after co-incubation with GR cells and the parental cells. […] Next, we evaluated the therapeutic effect of […] cells against Capan-1 GR cells in vivo. The parental Capan-1 cells were injected as control.

Another assay has as its system Capan-1 GR. Described as above. Type of assay: cell-based, human. Particulars: 1.6 uM and 3.2 uM; without medium change or with medium change at 1 h or 3 h; compared to parental cell line.
Text: as §1

Regarding `Nc1ccn([C@@H]2O[C@H](CO)[C@@H](O)C2(F)F)c(=O)n1` [gemcitabine, 2′,2′-difluorodeoxycytidine], the “killing by gemcitabine (RTCA)” value in the assay with MIA Paca-2 GR and in the assay with Capan-1 GR was “not killed” throughout.
